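Values below derive from 48-hour exposures of cells grown in 96-well plates, with endpoints linearly interpolated between the two concentrations bracketing the appropriate inhibition level. The concentration for 50% growth inhibition is given as GI50.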 Calls of active or inactive are those of the source. Rule as the data show it: active = GI50 up to about 1.1 µM and inactive = higher.
Columns and labels:
Experiment in all cases: DTP human tumour cell line panel, 48 h
[1] = tested on: M14
[2] = tested on: DU-145
[3] = tested on: SN12C
[4] = tested on: SK-MEL-2
[5] = tested on: SNB-75
[6] = tested on: SK-MEL-5
[7] = tested on: RPMI-8226
[8] = tested on: NCI-H522
[9] = tested on: ACHN
[10] = tested on: LOX IMVI
[11] = tested on: SK-OV-3
[12] = tested on: 786-0
[13] = tested on: U-251
[14] = tested on: IGROV-1
[15] = tested on: SR
[16] = tested on: NCI-H460
[17] = tested on: CCRF-CEM
[18] = tested on: UACC-62
[19] = tested on: A549
[20] = tested on: SK-MEL-28
[21] = tested on: COLO 205
[22] = tested on: OVCAR-5
[23] = tested on: HCT-116
[24] = tested on: RXF 393
[25] = tested on: HCT-15
[26] = tested on: SF-539
[27] = tested on: MDA-N
[28] = tested on: HOP-92
[29] = tested on: A498
[30] = tested on: CAKI-1
[31] = tested on: UACC-257
[32] = tested on: KM12
[33] = tested on: BT-549
[34] = tested on: MDA-MB-435
[35] = tested on: PC-3
[36] = tested on: NCI/ADR-RES
[37] = tested on: TK-10
[38] = tested on: Malme-3M
[39] = tested on: HT-29
[40] = tested on: HOP-62
[41] = tested on: MDA-MB-231
[42] = tested on: HL-60
[43] = tested on: SNB-19
[44] = tested on: MCF7
[45] = tested on: NCI-H23
[46] = tested on: UO-31
[47] = tested on: SW-620
[48] = tested on: OVCAR-3
[49] = tested on: SF-295
[50] = tested on: NCI-H226
[51] = tested on: MOLT-4
[52] = tested on: OVCAR-8
[53] = tested on: Hs-578T
[54] = tested on: SF-268
[55] = tested on: T47D
[56] = tested on: K562
[57] = tested on: EKVX
[58] = tested on: HCC 2998
[59] = tested on: OVCAR-4

COc1cc(C[S+]([O-])c2ccc(O)cc2)cc(OC)c1OC (centres undefined)
GI50 [1]: > 100 µM (inactive) | GI50 [2]: > 100 µM (inactive) | GI50 [3]: > 100 µM (inactive) | GI50 [4]: > 100 µM (inactive) | GI50 [5]: > 100 µM (inactive) | GI50 [6]: > 100 µM (inactive) | GI50 [7]: > 100 µM (inactive) | GI50 [8]: > 100 µM (inactive) | GI50 [9]: > 100 µM (inactive) | GI50 [10]: > 100 µM (inactive) | GI50 [11]: > 100 µM (inactive) | GI50 [12]: > 100 µM (inactive) | GI50 [13]: > 100 µM (inactive) | GI50 [14]: > 100 µM (inactive) | GI50 [15]: > 100 µM (inactive) | GI50 [16]: > 100 µM (inactive) | GI50 [17]: > 100 µM (inactive) | GI50 [18]: > 100 µM (inactive) | GI50 [19]: > 100 µM (inactive) | GI50 [20]: > 100 µM (inactive) | GI50 [21]: > 100 µM (inactive) | GI50 [22]: > 100 µM (inactive) | GI50 [23]: > 100 µM (inactive) | GI50 [24]: > 100 µM (inactive) | GI50 [25]: > 100 µM | GI50 [26]: > 100 µM (inactive) | GI50 [27]: > 100 µM (inactive) | GI50 [28]: > 100 µM (inactive) | GI50 [29]: > 100 µM (inactive) | GI50 [30]: > 100 µM (inactive) | GI50 [31]: > 100 µM (inactive) | GI50 [32]: > 100 µM (inactive) | GI50 [33]: > 100 µM (inactive) | GI50 [34]: > 100 µM (inactive) | GI50 [35]: > 100 µM (inactive) | GI50 [36]: > 100 µM (inactive) | GI50 [37]: > 100 µM (inactive) | GI50 [38]: > 100 µM (inactive) | GI50 [39]: > 100 µM (inactive) | GI50 [40]: > 100 µM (inactive) | GI50 [41]: > 100 µM (inactive) | GI50 [42]: > 100 µM (inactive) | GI50 [43]: > 100 µM (inactive) | GI50 [44]: > 100 µM (inactive) | GI50 [45]: > 100 µM (inactive) | GI50 [46]: 66.2 µM (inactive) | GI50 [47]: > 100 µM (inactive) | GI50 [48]: > 100 µM (inactive) | GI50 [49]: > 100 µM (inactive) | GI50 [50]: > 100 µM (inactive) | GI50 [51]: > 100 µM (inactive) | GI50 [52]: > 100 µM (inactive) | GI50 [53]: > 100 µM (inactive) | GI50 [54]: > 100 µM (inactive) | GI50 [55]: > 100 µM (inactive) | GI50 [56]: > 100 µM (inactive) | GI50 [57]: > 100 µM (inactive)

O=C1CC2(CCC(O)(c3cccs3)C(C(=O)c3cccs3)C2)C(=O)c2ccccc2N1 (centres undefined)
GI50 [1]: > 100 µM (inactive) | GI50 [2]: 67.3 µM (inactive) | GI50 [3]: > 100 µM (inactive) | GI50 [4]: > 100 µM (inactive) | GI50 [5]: 37.7 µM (inactive) | GI50 [6]: 11.8 µM (inactive) | GI50 [10]: 89.3 µM (inactive) | GI50 [11]: > 100 µM (inactive) | GI50 [13]: 90.4 µM (inactive) | GI50 [14]: > 100 µM (inactive) | GI50 [15]: > 100 µM (inactive) | GI50 [16]: 16.5 µM (inactive) | GI50 [17]: 22.5 µM (inactive) | GI50 [18]: > 100 µM (inactive) | GI50 [19]: 95.7 µM (inactive) | GI50 [21]: 33.7 µM (inactive) | GI50 [22]: > 100 µM (inactive) | GI50 [23]: 53 µM (inactive) | GI50 [24]: > 100 µM (inactive) | GI50 [25]: 28.5 µM | GI50 [26]: > 100 µM (inactive) | GI50 [27]: > 100 µM (inactive) | GI50 [28]: > 100 µM (inactive) | GI50 [29]: > 100 µM (inactive) | GI50 [30]: > 100 µM (inactive) | GI50 [31]: > 100 µM (inactive) | GI50 [33]: > 100 µM (inactive) | GI50 [34]: > 100 µM (inactive) | GI50 [35]: 51.8 µM (inactive) | GI50 [36]: 67.1 µM (inactive) | GI50 [37]: > 100 µM (inactive) | GI50 [38]: > 100 µM (inactive) | GI50 [39]: 40.6 µM (inactive) | GI50 [40]: > 100 µM (inactive) | GI50 [41]: > 100 µM (inactive) | GI50 [42]: 29.2 µM (inactive) | GI50 [44]: 77.4 µM (inactive) | GI50 [45]: > 100 µM (inactive) | GI50 [46]: > 100 µM (inactive) | GI50 [47]: > 100 µM (inactive) | GI50 [48]: 63.8 µM (inactive) | GI50 [49]: > 100 µM (inactive) | GI50 [50]: > 100 µM (inactive) | GI50 [58]: 38.5 µM (inactive) | GI50 [51]: 29 µM (inactive) | GI50 [52]: > 100 µM (inactive) | GI50 [53]: > 100 µM (inactive) | GI50 [54]: > 100 µM (inactive) | GI50 [55]: 18.2 µM (inactive) | GI50 [56]: 40.8 µM (inactive) | GI50 [57]: > 100 µM (inactive)

O=C1C(O)=C(C(CCc2ccccc2)C2=C(O)C(=O)c3ccccc3C2=O)C(=O)c2ccccc21
GI50 [1]: 11.5 µM (inactive) | GI50 [2]: 8.55 µM (inactive) | GI50 [3]: 56 µM (inactive) | GI50 [4]: 35.5 µM (inactive) | GI50 [5]: 45.8 µM (inactive) | GI50 [6]: 4.08 µM (inactive) | GI50 [7]: 16.1 µM (inactive) | GI50 [8]: 23.8 µM (inactive) | GI50 [9]: 65.9 µM (inactive) | GI50 [10]: 5.26 µM (inactive) | GI50 [11]: > 100 µM (inactive) | GI50 [12]: > 100 µM (inactive) | GI50 [13]: 45.6 µM (inactive) | GI50 [14]: 34.6 µM (inactive) | GI50 [15]: 16.9 µM (inactive) | GI50 [16]: 3.61 µM (inactive) | GI50 [17]: 37.9 µM (inactive) | GI50 [18]: 13.7 µM (inactive) | GI50 [19]: 33 µM (inactive) | GI50 [20]: > 100 µM (inactive) | GI50 [21]: 28.4 µM (inactive) | GI50 [22]: > 100 µM (inactive) | GI50 [23]: 40 µM (inactive) | GI50 [24]: > 100 µM (inactive) | GI50 [25]: 40.9 µM | GI50 [26]: 58.5 µM (inactive) | GI50 [27]: 16.2 µM (inactive) | GI50 [28]: 40 µM (inactive) | GI50 [29]: 76.4 µM (inactive) | GI50 [30]: > 100 µM (inactive) | GI50 [31]: 13.4 µM (inactive) | GI50 [32]: > 100 µM (inactive) | GI50 [33]: > 100 µM (inactive) | GI50 [34]: 13.9 µM (inactive) | GI50 [35]: 68.7 µM (inactive) | GI50 [36]: > 100 µM (inactive) | GI50 [59]: 67.9 µM (inactive) | GI50 [37]: > 100 µM (inactive) | GI50 [38]: 4.27 µM (inactive) | GI50 [39]: 18.8 µM (inactive) | GI50 [40]: 28.8 µM (inactive) | GI50 [41]: 66.8 µM (inactive) | GI50 [42]: 1.1 µM (active) | GI50 [43]: > 100 µM (inactive) | GI50 [44]: 40.2 µM (inactive) | GI50 [45]: 3.65 µM (inactive) | GI50 [46]: > 100 µM (inactive) | GI50 [47]: 47.5 µM (inactive) | GI50 [48]: 30.7 µM (inactive) | GI50 [49]: 6.11 µM (inactive) | GI50 [50]: > 100 µM (inactive) | GI50 [52]: 57.1 µM (inactive) | GI50 [53]: 5.32 µM (inactive) | GI50 [54]: 92.9 µM (inactive) | GI50 [55]: > 100 µM (inactive) | GI50 [57]: 61.1 µM (inactive)
